As usually defined, the IC50 is the point on the concentration scale where inhibition reaches its midpoint. Higher therefore signals weaker potency.

human GPR17 short isoform, sequence (Q13304 29-367): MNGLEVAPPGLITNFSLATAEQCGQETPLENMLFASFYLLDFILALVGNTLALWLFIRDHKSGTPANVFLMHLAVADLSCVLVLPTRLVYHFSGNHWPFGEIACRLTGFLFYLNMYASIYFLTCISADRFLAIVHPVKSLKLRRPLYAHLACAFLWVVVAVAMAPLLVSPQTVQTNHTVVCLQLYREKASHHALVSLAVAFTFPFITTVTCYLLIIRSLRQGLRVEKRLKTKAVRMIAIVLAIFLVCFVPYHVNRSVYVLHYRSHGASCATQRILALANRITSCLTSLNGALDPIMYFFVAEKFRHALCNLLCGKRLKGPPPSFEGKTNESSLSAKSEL

The assay has as its target human GPR17 short isoform (Homo sapiens (Human), UniProt Q13304). The experiment in a line: GPR17 cAMP assay (hGPR17 cAMP, antagonist mode against EC80 of MDL29,951). The class given is cell-based. The note with it: CHO-K1 cells stably expressing human GPR17 short isoform; EC80 of agonist MDL29,951; forskolin 15 μM. As for the experimental part: GPR17 cAMP Assay Protocol:
CHO-K1 cells stably expressing vector containing untagged human GPR17 short isoform (Roche) were cultured at 37° C./5% CO2 in DMEM (Dulbecco's Modified Eagle Medium):F-12 (1:1) supplemented with 10% foetal bovine serum and 400 μg/ml Geneticin.
Changes in intracellular cyclic adenosine monophosphate (cAMP) levels were quantified using the Nano-TRF Detection Assay kit (Roche Diagnostics, Cat. No. 05214386001). This assay allows for direct cAMP quantification in a homogeneous solution, cAMP is detected based on time-resolved fluorescence energy transfer (TR-FRET) and competitive binding of ruthenylated cAMP and endogenous cAMP to an anti-cAMP monoclonal antibody labeled with AlexaFluor-700. The Ruthenium complex serves as the FRET donor and transfers energy to AlexaFluor-700. The FRET signal is inversely proportional to the cAMP concentration.
CHO-GPR17S cells were detached with Accutase and resuspended in assay buffer consisting of Hank's Balanced Salt Solution (HBSS), 10 mM HEPES (4-(2-hydroxyethyl) piperazine-1-ethanesulfonic acid solution) and 0.1% bovine serum albumin (pH 7.4). The cells were seeded in black 384-well plates (Corning) at a density of 10,000 cells/20 μl assay buffer until the addition of compounds.
Test antagonist compounds were serially diluted in dimethyl sulfoxide (DMSO) and spotted in 384-well plates. The compounds were then diluted in HBSS buffer supplemented with an EC80 concentration of MDL29,951 (3-(2-Carboxy-4,6-dichloroindol-3-yl)propionic acid) (GPR17 agonist) plus 3-Isobutyl-1-methylxanthine (IBMX) (0.5 mM final concentration) and added to the cells at room temperature. Forskolin (15 μM final concentration) was added 5 minutes after the test compounds and the cells were incubated at room temperature for 30 minutes. The assay was stopped by adding cAMP detection mix (containing detergents for cell lysis) for 90 minutes at room temperature.
Cellular cAMP was measured using a Paradigm reader (Molecular Devices). The raw data was used to calculate the FRET signal based on the assay's P-factor as per cAMP kit instructions. The data was normalized to the maximal activity of a reference antagonist and dose response curves were fitted to the percent activity of the test compounds using a sigmoidal dose response model (Genedata Screener).
On the technique in general: Changes in cAMP serve as a functional read-out for many G protein-coupled receptors.
Take `COc1nc(NS(=O)(=O)c2c[nH]c3c2ccc2scnc23)ncc1CC(F)F` [Example 290, N-[5-(2,2-Difluoroethyl)-4-Methoxy-Pyrimidin-2-Yl]-8H-Pyrrolo[2,3-e][1.3]Benzothiazole-6-Sulfonamide]: the concentration for half-maximal inhibition (IC50) is 405 nM.

`COc1nc(NS(=O)(=O)c2c[nH]c3c2ccc2cccnc23)ncc1CC(F)F` [Example 222, N-[5-(2,2-difluoroethyl)-4-methoxy-pyrimidin-2-yl]-1H-pyrrolo[3,2-h]quinoline-3-sulfonamide] returned an IC50 of 291 nM.

`CCc1ccc2c(S(=O)(=O)Nc3ncc(CC(F)F)c(OC)n3)c[nH]c2c1` [Example 152, N-[5-(2,2-difluoroethyl)-4-methoxy-pyrimidin-2-yl]-6-ethyl-1H-indole-3-sulfonamide] gave an IC50 of 104 nM.

In turn, `COc1nc(NS(=O)(=O)c2c[nH]c3cc(C(F)F)ccc23)nc(OC)c1CC(F)F` [Example 236, N-[5-(2,2-difluoroethyl)-4,6-dimethoxy-pyrimidin-2-yl]-6-(difluoromethyl)-1H-indole-3-sulfonamide] came in with a 50% inhibitory concentration (IC50) of 14 nM.

The molecule `COc1nc(NS(=O)(=O)c2c[nH]c3cc(Cl)ccc23)ncc1C1CC1` [Example 28, 6-chloro-n-(5-cyclopropyl-4-methoxy-pyrimidin-2-yl)-1h-indole-3-sulfonamide] had an IC50 of 653 nM.

Molecule `COc1nc(NS(=O)(=O)c2c[nH]c3cc(Cl)ccc23)nc(OC)c1OC(F)F` [Example 52, 6-chloro-N-[5-(difluoromethoxy)-4,6-dimethoxy-pyrimidin-2-yl]-1H-indole-3-sulfonamide] had a concentration for half-maximal inhibition (IC50) of 32 nM.

`COc1nc(NS(=O)(=O)c2c[nH]c3nc(Br)ccc23)nc(OC)c1OC(F)(F)CF` [Example 110, 6-bromo-N-[4,6-dimethoxy-5-(1,1,2-trifluoroethoxy)pyrimidin-2-yl]-1H-pyrrolo[2,3-b]pyridine-3-sulfonamide] displayed an IC50 of 25 nM.

In turn, `COc1nc(NS(=O)(=O)c2c[nH]c3c(Br)c(F)ccc23)ncc1CC(F)F` [Example 128, 7-bromo-N-[5-(2,2-difluoroethyl)-4-methoxy-pyrimidin-2-yl]-6-fluoro-1H-indole-3-sulfonamide] displayed an IC50 of 446 nM.

In turn, `COc1nc(NS(=O)(=O)c2c[nH]c3cc(Cl)ccc23)nc(OC)c1CCS(C)(=O)=O` [Example 281, 6-Chloro-N-[4,6-Dimethoxy-5-(2-Methylsulfonylethyl)Pyrimidin-2-Yl]-1H-Indole-3-Sulfonamide] had an IC50 of 237 nM.

`COc1nc(NS(=O)(=O)c2csc3c(F)c(Cl)ccc23)ncc1CC(F)F` [Example 162, 6-chloro-N-[5-(2,2-difluoroethyl)-4-methoxy-pyrimidin-2-yl]-7-fluoro-benzothiophene-3-sulfonamide] returned an IC50 of 248 nM.

In turn, `COc1nc(NS(=O)(=O)c2c[nH]c3c(C#N)c(Cl)ccc23)nc(OC)c1OC(F)F` [Example 224, 6-chloro-7-cyano-N-[5-(difluoromethoxy)-4,6-dimethoxy-pyrimidin-2-yl]-1H-indole-3-sulfonamide] registered an IC50 of 25 nM.

For the molecule `COc1nc(NS(=O)(=O)c2c[nH]c3nc(Cl)ccc23)ncc1OCC(F)F` [Example 170, 6-chloro-N-[5-(2,2-difluoroethoxy)-4-methoxy-pyrimidin-2-yl]-1H-pyrrolo[2,3-b]pyridine-3-sulfonamide], the 50% inhibitory concentration (IC50) came to 162 nM.

`COc1nc(NS(=O)(=O)c2c[nH]c3c(Br)c(Cl)ccc23)nc(OC)c1CC(F)F` [Example 283, 7-Bromo-6-Chloro-N-[5-(2,2-Difluoroethyl)-4,6-Dimethoxy-Pyrimidin-2-Yl]-1H-Indole-3-Sulfonamide] showed an IC50 of 13 nM.

`COc1nc(NS(=O)(=O)c2c[nH]c3nc(Cl)ccc23)nc(OC)c1CC(F)F` [Example 120, 6-chloro-N-[5-(2,2-difluoroethyl)-4,6-dimethoxy-pyrimidin-2-yl]-1H-pyrrolo[2,3-b]pyridine-3-sulfonamide] gave an IC50 of 40 nM.

In the case of `COc1nc(NS(=O)(=O)c2c[nH]c3cc(Cl)ccc23)nc(CC2CC2)c1Br` [Example 80, N-[5-bromo-4-(cyclopropylmethyl)-6-methoxy-pyrimidin-2-yl]-6-chloro-1H-indole-3-sulfonamide], the IC50 turned out to be 20800 nM.

Take `COc1nc(NS(=O)(=O)c2c[nH]c3c(F)c(Cl)ccc23)nc(OC)c1CCC#N` [Example 218, 6-chloro-N-[5-(2-cyanoethyl)-4,6-dimethoxy-pyrimidin-2-yl]-7-fluoro-1H-indole-3-sulfonamide]: the IC50 came to 14 nM.

`COc1nc(NS(=O)(=O)c2c[nH]c3cc(Cl)ccc23)ncc1C#N` [Example 23, 6-chloro-N-(5-cyano-4-methoxy-pyrimidin-2-yl)-1H-indole-3-sulfonamide] gave a half-maximal inhibitory concentration (IC50) of 256 nM.

In turn, `COc1nc(NS(=O)(=O)c2c[nH]c3cc(Cl)c(F)cc23)ncc1CC(F)F` [Example 185, 6-chloro-N-[5-(2,2-difluoroethyl)-4-methoxy-pyrimidin-2-yl]-5-fluoro-1H-indole-3-sulfonamide] yielded an IC50 of 89 nM.

Turning to `COc1nc(NS(=O)(=O)c2c[nH]c3c(C)c(Cl)ccc23)ncc1CC(F)F` [Example 192, 6-chloro-N-[5-(2,2-difluoroethyl)-4-methoxy-pyrimidin-2-yl]-7-methyl-1H-indole-3-sulfonamide], the concentration for half-maximal inhibition (IC50) turned out to be 20 nM.

Consider `COc1nc(NS(=O)(=O)c2c[nH]c3nc(C)ccc23)nc(OC)c1CC(F)F` [Example 132, N-[5-(2,2-difluoroethyl)-4,6-dimethoxy-pyrimidin-2-yl]-6-methyl-1H-pyrrolo[2,3-b]pyridine-3-sulfonamide], for which the IC50 amounted to 39 nM.

`COc1nc(NS(=O)(=O)c2c[nH]c3cc(Br)ccc23)ncc1OC(F)F` [Example 189, 6-bromo-N-[5-(difluoromethoxy)-4-methoxy-pyrimidin-2-yl]-1H-indole-3-sulfonamide] came in with an IC50 of 167 nM.

`COc1nc(NS(=O)(=O)c2c[nH]c3nc(Br)ccc23)nc(OC)c1OC(F)F` [Example 172, 6-bromo-N-[5-(difluoromethoxy)-4,6-dimethoxy-pyrimidin-2-yl]-1h-pyrrolo[2,3-b]pyridine-3-sulfonamide] displayed an IC50 of 15 nM.

`COc1nc(NS(=O)(=O)c2c[nH]c3c([S+](C)[O-])c(Cl)ccc23)nc(OC)c1OCCF` (stereo not shown) [Example 278, 6-chloro-N-[5-(2-fluoroethoxy)-4,6-dimethoxy-pyrimidin-2-yl]-7-methylsulfinyl-1h-indole-3-sulfonamide] came in with a half-maximal inhibitory concentration (IC50) of 229 nM.

For the molecule `COc1nc(NS(=O)(=O)c2c[nH]c3c([S+](C)[O-])c(Cl)ccc23)nc(OC)c1CC(F)F` (stereo not shown) [Example 279, 6-chloro-N-[5-(2,2-difluoroethyl)-4,6-dimethoxy-pyrimidin-2-yl]-7-methylsulfinyl-1H-indole-3-Sulfonamide], the IC50 was determined as 69 nM.

`COc1nc(NS(=O)(=O)c2c[nH]c3c(OC)c(Br)ccc23)ncc1CC(F)F` [Example 196, 6-bromo-N-[5-(2,2-difluoroethyl)-4-methoxy-pyrimidin-2-yl]-7-methoxy-1H-indole-3-sulfonamide]: the IC50 came to 16 nM.

`COc1nc(NS(=O)(=O)c2c[nH]c3cc(Cl)ccc23)nc(OC)c1OCC#N` [Example 265, 6-chloro-N-[5-(cyanomethoxy)-4,6-dimethoxy-pyrimidin-2-yl]-1H-indole-3-sulfonamide] displayed an IC50 of 14 nM.

As for `COc1nc(NS(=O)(=O)c2c[nH]c3nc(Cl)ccc23)ncc1OC(F)F` [Example 119, 6-chloro-N-[5-(difluoromethoxy)-4-methoxy-pyrimidin-2-yl]-1H-pyrrolo[2,3-b]pyridine-3-sulfonamide], the half-inhibitory concentration (IC50) amounted to 161 nM.

The molecule `COc1nc(NS(=O)(=O)c2c[nH]c3cc(Cl)ccc23)nc(F)c1Br` [Example 73, N-(5-bromo-4-fluoro-6-methoxy-pyrimidin-2-yl)-6-chloro-1H-indole-3-sulfonamide] returned a 50% inhibitory concentration (IC50) of 124 nM.

On to `CCOc1nc(NS(=O)(=O)c2c[nH]c3cc(Cl)ccc23)nc(OC)c1Br` [Example 13, N-(5-bromo-4-ethoxy-6-methoxy-pyrimidin-2-yl)-6-chloro-1H-indole-3-sulfonamide], for which the 50% inhibitory concentration (IC50) came to 236 nM.

For `COc1nc(NS(=O)(=O)c2c[nH]c3c(F)c(Br)ccc23)nc(OC)c1OCC#N` [Example 244, 6-bromo-N-[5-(cyanomethoxy)-4,6-dimethoxy-pyrimidin-2-yl]-7-fluoro-1H-indole-3-sulfonamide], the 50% inhibitory concentration (IC50) was found to be 16 nM.

Molecule `COc1nc(NS(=O)(=O)c2c[nH]c3cc(Cl)ccc23)ncc1OCCCF` [Example 174, 6-chloro-N-[5-(3-fluoropropoxy)-4-methoxy-pyrimidin-2-yl]-1H-indole-3-sulfonamide] gave a 50% inhibitory concentration (IC50) of 484 nM.

These data come from patent US20240025883A1, “PYRIMIDIN-2-YL SULFONAMIDE DERIVATIVES” (Hoffmann-La Roche Inc., priority 2021, published 2024).
